How the values were obtained:
[1] = tested on: Leptosphaeria nodorum; experiment: Leptosphaeria nodorum test (wheat)/protective; type: in vivo; settings: young wheat plants sprayed at 500 ppm, inoculated 1 day after treatment, evaluation 7-9 days after inoculation; 0% = control, 100% = no infection
Protocol: Leptosphaeria nodorum Test (Wheat)/Protective Solvent: 49 parts by weight of N,N-dimethyformamide Emulsifler: 1 part by weight of alkylaryl polyglycol ether To produce an appropriate active ingredient formulation, 1 part by weight of active ingredient is mixed with the specified amounts of solvent and emulsifler, and the concentrate is diluted with water to the desired concentration. To test for protective activity, young plants are sprayed with the formulation of active ingredient at the stated application rate. One day after the treatment, the plants are inoculated with an aqueous spore suspension of Leptosphaeria nodorum and then remain at 100% relative air humidity and 22° C. for 48 h. The plants are then placed in a greenhouse at 90% relative air humidity and a temperature of 22° C. Evaluation follows 7-9 days after the inoculation. 0% means an efficacy which corresponds to that of the control, whereas an efficacy of 100% means that no infection is observed. In this test, the following inventive compounds, at an active ingredient concentration of 500 ppm, show an efficacy of 70% or more.

[2] = tested on: Alternaria solani; experiment: Alternaria test (tomato)/protective; type: in vivo; settings: young tomato plants sprayed at 500 ppm, inoculated 1 day after treatment, evaluation 7 days after inoculation; 0% = control, 100% = no infection
Protocol: Alternaria Test (Tomato)/Protective Solvent: 49 parts by weight of N,N-dimethyformamide Emulsifier: 1 part by weight of alkylaryl polyglycol ether To produce an appropriate active ingredient formulation, 1 part by weight of active ingredient is mixed with the specified amounts of solvent and emulsifier, and the concentrate is diluted with water to the desired concentration. To test for protective activity, young tomato plants are sprayed with the formulation of active ingredient at the stated application rate. One day after the treatment, the plants are inoculated with a spore suspension of Alternaria solani and are then left at 100% relative humidity and 22° C. for 24 hours. The plants are then left at 96% relative air humidity and a temperature of 20° C. Evaluation follows 7 days after the inoculation. 0% means an efficacy which corresponds to that of the control, whereas an efficacy of 100% means that no infection is observed. In this test, the following inventive compounds, at an active ingredient concentration of 500 ppm, show an efficacy of 70% or more.

[3] = tested on: Puccinia recondita; experiment: Puccinia test (wheat)/protective; type: in vivo; settings: young wheat plants sprayed at 500 ppm, inoculated 1 day after treatment, evaluation 7-9 days after inoculation; 0% = control, 100% = no infection
Protocol: Puccinia Test (Wheat)/Protective Solvent: 49 parts by weight of N,N-dimethyformamide Emulsifier: 1 part by weight of alkylaryl polyglycol ether To produce an appropriate active ingredient formulation, 1 part by weight of active ingredient is mixed with the specified amounts of solvent and emulsifier, and the concentrate is diluted with water to the desired concentration. To test for protective activity, young plants are sprayed with the formulation of active ingredient at the stated application rate. One day after the treatment, the plants are inoculated with a spore suspension of Puccinia recondita and then left at 100% relative humidity and 22° C. for 48 h. The plants are then left at 80% relative air humidity and a temperature of 20° C. Evaluation follows 7-9 days after the inoculation. 0% means an efficacy which corresponds to that of the control, whereas an efficacy of 100% means that no infection is observed. In this test, the following inventive compounds, at an active ingredient concentration of 500 ppm, show an efficacy of 70% or more.

[4] = tested on: Sphaerotheca fuliginea; experiment: Sphaerotheca test (cucumber)/protective; type: in vivo; settings: young cucumber plants sprayed at 500 ppm, inoculated 1 day after treatment, evaluation 7 days after inoculation; 0% = control, 100% = no infection
Protocol: Table D: Sphaerotheca Test (Cucumber)/Protective Solvent: 49 parts by weight of N,N-dimethylformamide Emulsifier: 1 part by weight of alkylaryl polyglycol ether To produce an appropriate active ingredient formulation, 1 part by weight of active ingredient is mixed with the specified amounts of solvent and emulsifier, and the concentrate is diluted with water to the desired concentration. To test for protective activity, young cucumber plants are sprayed with the formulation of active ingredient at the stated application rate. 1 day after the treatment, the plants are inoculated with a spore suspension of Sphaerotheca fuliginea. The plants are then placed in a greenhouse at 70% relative air humidity and a temperature of 23° C. Evaluation follows 7 days after the inoculation. 0% means an efficacy which corresponds to that of the control, whereas an efficacy of 100% means that no infection is observed. In this test, the following inventive compounds, at an active ingredient concentration of 500 ppm, show an efficacy of 70% or more.

[5] = log P by HPLC (EEC Directive 79/831 Annex V.A8), reversed-phase C18; type: physicochemical; settings: reversed-phase C18 HPLC column; method [a]: LC-MS, acidic range, pH 2.7, 0.1% aqueous formic acid/acetonitrile, linear gradient 10% to 95% acetonitrile
Protocol: The log P values were measured in accordance with EEC Directive 79/831 Annex V.A8 by HPLC (High Performance Liquid Chromatography) using reversed-phase columns (C 18) by the following methods: [a] The LC-MS determination in the acidic range is effected at pH 2.7 with 0.1% aqueous formic acid and acetonitrile (contains 0.1% formic acid) as eluents; linear gradient from 10% acetonitrile to 95% acetonitrile.

| Compound | Efficacy (%) [1] | Efficacy (%) [2] | Efficacy (%) [3] | Efficacy (%) [4] | chromatographic logP [5] |
| --- | --- | --- | --- | --- | --- |
| CC(C)(C)c1ncc(OCC(O)(c2cncs2)C(C)(C)C)cn1 (centres unmarked) [Compound 2] | 95% | – | – | – | – |
| CC(C)(C)C(O)(COc1ccc(Cl)nc1)c1cncs1 (centres unmarked) [Compound 3] | – | 89% | 80% | 80% | – |
| CC(C)(C)C(O)(COc1cccnc1)c1cncs1 (centres unmarked) [Compound 4] | – | – | 80% | – | 0.89 |
| CC(C)(C)C(O)(COc1cncnc1)c1cncs1 (centres unmarked) [Compound 6] | 70% | – | – | – | 1.4 |

Source: patent US9145403B2, “Heterocyclic alkanol derivatives” (Bayer Intellectual Property GmbH, priority 2010, dated 2015)
